Measured values reported in patent publication US9750733B2, “Compounds for preventing and/or treating lysosomal storage disorders and/or degenerative disorders of the central nervous system” (Amicus Therapeutics, Inc., priority 2012, dated 2017).
Where a name gives a salt, the structure may show the parent alone.

Assays:
[1] = Physical stability under stress and ambient conditions; type: physicochemical
From the text: (§1) The hydrochloride and fumarate Forms B, B2 and B3 salts of (3R,4R,5S)-5-(difluoromethyl)piperidine-3,4-diol were also found to be hygroscopic.

[2] = Dynamic vapor sorption (DVS) hygroscopicity analysis; type: physicochemical; conditions: for Hygroscopicity (% water uptake up to 45% relative humidity): DVS, 25° C., 60 minutes hold per 10% step in relative humidity, weight increase as percentage of material weight
Experimental: Differences in hygroscopicity (moisture uptake) of the various forms of a solid material provide a measure of their relative stability at increasing relative humidity. Dynamic vapor sorption (DVS) analysis was performed for (3R,4R,5S)-5-(difluoromethyl)piperidine-3,4-diol, (3R,4R,5S)-5-(difluoromethyl)piperidine-3,4-diol fumarate Form A, (3R,4R,5S)-5-(difluoromethyl)piperidine-3,4-diol fumarate Form 1B and (3R,4R,5S)-5-(difluoromethyl)piperidine-3,4-diol tosylate. Moisture sorption isotherms for samples of each salt and the free base were obtained using a DVS-1 system from Surface Measurement Systems (London, UK). The relative humidity was cycled from 45% to 95% (sorption), back to 0% (desorption) and back to 45% (sorption) at a constant temperature of 25° C. with a hold time of 60 minutes per each 10% step in relative humidity. The increase in weight due to moisture uptake was measured as a percentage of the weight of the material.

β-glucocerebrosidase = target: T1, β-glucocerebrosidase (Homo sapiens, UniProt P04062); conditions: as described in US 2011/0091442 and 2011/0092541; cited from earlier work
T1 sequence (P04062 40-536): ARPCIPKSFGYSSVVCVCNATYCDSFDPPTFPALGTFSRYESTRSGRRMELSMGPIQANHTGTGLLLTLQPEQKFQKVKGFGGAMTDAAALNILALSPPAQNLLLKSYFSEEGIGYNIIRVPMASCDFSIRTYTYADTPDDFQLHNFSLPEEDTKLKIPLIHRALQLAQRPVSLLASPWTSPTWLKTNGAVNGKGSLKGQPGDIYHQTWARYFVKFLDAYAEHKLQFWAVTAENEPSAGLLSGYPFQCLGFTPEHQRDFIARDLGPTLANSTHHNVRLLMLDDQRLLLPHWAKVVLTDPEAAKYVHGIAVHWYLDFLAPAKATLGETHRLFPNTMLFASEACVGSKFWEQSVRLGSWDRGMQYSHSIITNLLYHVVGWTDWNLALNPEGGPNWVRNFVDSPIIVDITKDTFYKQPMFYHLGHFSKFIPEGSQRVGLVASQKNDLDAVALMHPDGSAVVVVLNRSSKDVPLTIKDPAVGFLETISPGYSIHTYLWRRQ

[3] = Separate dynamic vapor sorption test (hydrochloride salt); type: physicochemical
From the text: as §1

## O[C@H]1[C@H](O)CNC[C@@H]1C(F)F [Fumarate Form A, (3R,4R,5S)-5-(difluoromethyl)piperidine-3,4-diol fumarate Form A]
[1]
  Physical state after one day at 40° C. and 75% relative humidity: physically stable
[1]; slurries at 10° C. and 30° C. in a variety of organic solvents
  Physical stability in slurries: physically stable
[1]; wet grinding for 60 minutes at 30 Hz
  Physical stability on wet grinding: physically stable
[2]
  Hygroscopicity (% water uptake up to 45% relative humidity): 0.09%

## O=C(O)/C=C/C(=O)O.O[C@H]1[C@H](O)CNC[C@@H]1C(F)F [fumarate Form B, (3R,4R,5S)-5-(difluoromethyl) piperidine-3,4-diol fumarate Forms B, B2 and B3]
[1]
  Hygroscopicity (in words): hygroscopic
  Physical state after one day at 40° C. and 75% relative humidity: became deliquescent

## O[C@H]1[C@H](O)CNC[C@@H]1C(F)F [Free Base, (3R,4R,5S)-5-(difluoromethyl)piperidine-3,4-diol]
β-glucocerebrosidase
  Inhibition of β-glucocerebrosidase (in words): potent and selective inhibitors
[2]
  Hygroscopicity (% water uptake up to 45% relative humidity): 9.3%

## Cl.O[C@H]1[C@H](O)CNC[C@@H]1C(F)F [hydrochloride, (3R,4R,5S)-5-(difluoromethyl)piperidine-3,4-diol hydrochloride]
[1]
  Hygroscopicity (in words): hygroscopic
β-glucocerebrosidase
  Inhibition of β-glucocerebrosidase (in words): potent and selective inhibitors
[3]
  Relative humidity after which the salt became deliquescent: > 60 % relative humidity

## O=C(O)/C=C/C(=O)O.O[C@H]1[C@H](O)CNC[C@@H]1C(F)F [fumarate Form B3, (3R,4R,5S)-5-(difluoromethyl) piperidine-3,4-diol fumarate Form B3]
[1]; at least one day at ambient conditions (room temperature)
  Stability at ambient conditions: remained stable

## Cc1ccc(S(=O)(=O)O)cc1.O[C@H]1[C@H](O)CNC[C@@H]1C(F)F [Tosylate, (3R,4R,5S)-5-(difluoromethyl)piperidine-3,4-diol tosylate]
[2]
  Hygroscopicity (% water uptake up to 45% relative humidity): 0.08%

## O=C(O)/C=C/C(=O)O.O[C@H]1[C@H](O)CNC[C@@H]1C(F)F [Fumarate Form 1B, (3R,4R,5S)-5-(difluoromethyl) piperidine-3,4-diol fumarate Form 1B]
[2]
  Hygroscopicity (% water uptake up to 45% relative humidity): 0.497%
[2]; comparison of the Table 6 DVS values
  Hygroscopicity of the salt relative to the free base (fold lower than free base): roughly 20 fold
